Counter-ions that a name gives are not always drawn.
Biological target: T1, recombinant human β secretase (Homo sapiens, UniProt P56817)
T1 construct: made in house; host or cells: COS7 cells transfected with pBACE2; membrane fraction solubilised with octyl-β-glucoside, purified with anti-Flag antibody
Assay: Measurement of inhibitory activity on β secretase (fluorogenic peptide substrate cleavage)
Assay type: biochemical
Details: pH 4.5
Excerpt: The PCR product was subjected to agarose gel electrophoresis, and about a 700-b DNA fragment was recovered. The fragment was cloned with a Zero Blunt TOPO PCR Cloning Kit (Invitrogen). The resultant plasmid was digested with restriction enzymes APaI (Takara Shuzo) and KpnI (Takara Shuzo) and then subjected to agarose gel electrophoresis to recover about a 250-b DNA fragment. […] These DNA fragments were mixed with an animal cell expression plasmid pcDNA3.1 (−) (Funakoshi) digested with API and KpnI, then ligated by use of Ligation High (Toyobo), and used to transform E. coli JM109 competent cells (Takara Shuzo) to give plasmid pBACE1. […] The PCR product was subjected to agarose gel electrophoresis, and about a 170-b DNA fragment was recovered. The fragment was cloned with a Zero Blunt TOPO PCR Cloning Kit (Invitrogen). The resultant plasmid was digested with restriction enzymes APaI (Takara Shuzo) and BbeI (Takara Shuzo) and then subjected to agarose gel electrophoresis, to recover about a 120-b DNA fragment. pBACE1 was digested with the same enzymes and subjected to agarose gel electrophoresis to recover about a 1.1-kb DNA fragment. Further, pBACE1 was digested with APaI and subjected to agarose gel electrophoresis to recover about a 5.7-kb DNA fragment. These 3 fragments were ligated by use of Ligation High (Toyobo), and used to transform E. coli JM109 competent cells (Takara Shuzo) to give plasmid pBACE2.
15 μg of Human β secretase expression plasmid pBACE2 and 45 μl of Fugene 6 (Roche Diagnostics) were allowed to stand in 1.5 ml D-MEM medium for 15 minutes at room temperature, and this mixture was added to COS7 cells previously grown in D-MEM medium (Nikken Seibutsu Igaku Kenkyusho) containing 10% fetal bovine serum (LifeTech Oriental) in a Tissue culture flask 150 ml (Becton, Dickinson & Co). […] The disrupted solution was centrifuged (500 g, 10 minutes), the supernatant was ultracentrifuged (100,000 g, 45 minutes), and the precipitates were lyzed (4° C., 2.5 hours) with 0.5 ml lyzing buffer (0.01 M Tris-HCl (pH 8), 0.05 M octyl-β-glucoside, 1 mM EDTA, 0.5 mM PMSF) and then ultracentrifuged (100,000 g, 45 minutes). The supernatant was purified with 100 μl anti-Flag antibody (Sigma).

T1 sequence (P56817 with tags, fused parts or gaps): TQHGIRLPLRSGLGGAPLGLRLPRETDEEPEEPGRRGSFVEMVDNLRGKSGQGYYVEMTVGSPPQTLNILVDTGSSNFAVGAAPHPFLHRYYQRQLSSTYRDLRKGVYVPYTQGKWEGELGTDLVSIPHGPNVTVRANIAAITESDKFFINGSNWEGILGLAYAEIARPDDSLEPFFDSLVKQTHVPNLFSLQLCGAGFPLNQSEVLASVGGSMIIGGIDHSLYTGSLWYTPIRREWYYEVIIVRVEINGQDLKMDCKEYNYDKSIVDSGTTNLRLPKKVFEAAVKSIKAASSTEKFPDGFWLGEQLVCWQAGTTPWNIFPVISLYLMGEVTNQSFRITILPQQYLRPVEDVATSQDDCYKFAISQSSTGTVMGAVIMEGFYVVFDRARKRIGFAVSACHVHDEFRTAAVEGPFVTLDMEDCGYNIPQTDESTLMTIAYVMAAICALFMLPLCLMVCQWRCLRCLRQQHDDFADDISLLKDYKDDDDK

| IC50 [nM] | SMILES |
| --- | --- |
| 349 | c1ccc(-c2ccc(COc3ccc4c(c3)CCC(CCN3CCCCC3)C4)cc2)cc1 (stereo not drawn) [F] |

Same assay, conditions: substrate Nma-Ser-Glu-Val-Asn-Leu-Asp-Ala-Glu-Lys(Dnp)-Arg-Arg-NH2; 0.05 M acetate buffer pH 4.5; 37° C. for 22 hours; fluorescence 325/460

| SMILES | IC50 [nM] |
| --- | --- |
| CN(C)CC[C@@H]1CCc2cc(OCc3ccc(-c4ccccc4)cc3)ccc2C1 [Compound A, (R)-(+)-6-(4-Biphenylyl)methoxy-2-[2-(N,N-dimethylamino)ethyl]tetralin hydrochloride·1H2O] | 2930 |
| CNCCC1CCc2cc(OCc3ccc(-c4ccccc4)cc3)ccc2C1 (stereo not drawn) [Compound C] | 1290 |
| CCN(C)CCC1CCc2cc(OCc3ccc(-c4ccccc4)cc3)ccc2C1 (stereo not drawn) [D] | 945 |
| c1ccc(-c2ccc(COc3ccc4c(c3)CCC(CCN3CCCC3)C4)cc2)cc1 (stereo not drawn) [E] | 1120 |
| c1ccc(-c2ccc(COc3ccc4c(c3)CCC(CCn3ccnc3)C4)cc2)cc1 (stereo not drawn) [G] | 856 |

Second part, the compound after the results:

| IC50 [nM] | SMILES |
| --- | --- |
| 616 | C[N+](C)([O-])CCC1CCc2cc(OCc3ccc(-c4ccccc4)cc3)ccc2C1 (stereo not drawn) [H] |
| 1050 | NCCC1CCc2cc(OCc3ccc(-c4ccccc4)cc3)ccc2C1 (stereo not drawn) [I] |
| 857 | Cc1ccc(-c2ccc(COc3ccc4c(c3)CC[C@@H](CCN(C)C)C4)cc2)cc1 [J] |

Source: patent US20050228020A1, “Beta secretase inhibitors” (priority 2000, published 2005)
